Experimental data from ChEMBL document CHEMBL1765032, “β-Branched acyclic nucleoside analogues as inhibitors of Plasmodium falciparum dUTPase” (Bioorg Med Chem, 2011).

What was measured:
[1] = system: L6; assay: Cytotoxicity against rat L6 cells after 72 hrs by alamar blue assay; type: cell-based; settings: L6, 72 h
[2] = system: Plasmodium falciparum; assay: microbe, parasite or virus in culture; settings: K1
[3] = Inhibition of Plasmodium falciparum dUTPase by spectrophotometric analysis
[4] = target: T1, Deoxyuridine 5'-triphosphate nucleotidohydrolase, mitochondrial (Homo sapiens, UniProt P33316); assay: Inhibition of human dUTPase by spectrophotometric analysis
T1 sequence (P33316 whole entry): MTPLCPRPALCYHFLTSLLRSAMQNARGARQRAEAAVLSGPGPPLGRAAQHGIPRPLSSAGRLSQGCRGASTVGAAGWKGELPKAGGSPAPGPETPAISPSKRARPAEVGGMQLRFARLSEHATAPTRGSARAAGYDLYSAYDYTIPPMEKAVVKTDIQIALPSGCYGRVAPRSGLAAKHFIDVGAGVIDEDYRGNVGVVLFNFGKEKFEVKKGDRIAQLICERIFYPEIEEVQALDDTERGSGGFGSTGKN

[5] = Selectivity index, ratio of EC50 for rat L6 cells to EC50 for chloroquine-resistant erythrocytic stage of Plasmodium falciparum K1; type: toxicity, cell-based; settings: read-out: Ratio EC50

SMILES	EC50 [1] [µM]	EC50 [2] [µM]	Ki [3] [µM]	Ki [4] [µM]	selectivity ratio [5]
O=c1ccn(CCCCOC(c2ccccc2)(c2ccccc2)c2ccccc2)c(=O)[nH]1	42	4.9	–	–	–
O=c1ccn([C@H]2C[C@H](O)[C@@H](CNC(c3ccccc3)(c3ccccc3)c3ccccc3)O2)c(=O)[nH]1	44	4.5	–	–	–
O=c1ccn([C@H]2C[C@H](O)[C@@H](COC(c3ccccc3)(c3ccccc3)c3ccccc3)O2)c(=O)[nH]1	192	6	–	–	–
NC(=O)C(CCOC(c1ccccc1)(c1ccccc1)c1ccccc1)Cn1ccc(=O)[nH]c1=O (racemic)	–	–	1.3	> 100	–
CN(C)C(=O)C(CCOC(c1ccccc1)(c1ccccc1)c1ccccc1)Cn1ccc(=O)[nH]c1=O (racemic)	–	–	2.7	> 100	–
CC(C)(C)[Si](OCCNC(=O)C(CCOC(c1ccccc1)(c1ccccc1)c1ccccc1)Cn1ccc(=O)[nH]c1=O)(c1ccccc1)c1ccccc1 (racemic)	–	–	> 10	> 100	–
CCOC(=O)CCNC(=O)C(CCOC(c1ccccc1)(c1ccccc1)c1ccccc1)Cn1ccc(=O)[nH]c1=O (racemic)	–	–	0.5	> 100	–
CN(C)CCNC(=O)C(CCOC(c1ccccc1)(c1ccccc1)c1ccccc1)Cn1ccc(=O)[nH]c1=O (racemic)	–	–	7.8	> 100	–
O=C(C(CCOC(c1ccccc1)(c1ccccc1)c1ccccc1)Cn1ccc(=O)[nH]c1=O)N1CCOCC1 (racemic)	–	–	2.1	> 100	–
COCCNC(=O)C(CCOC(c1ccccc1)(c1ccccc1)c1ccccc1)Cn1ccc(=O)[nH]c1=O (racemic)	–	–	1.4	> 100	–
CN1CCN(C(=O)C(CCOC(c2ccccc2)(c2ccccc2)c2ccccc2)Cn2ccc(=O)[nH]c2=O)CC1 (racemic)	–	–	5.6	> 100	–
O=C(NCCO)C(CCOC(c1ccccc1)(c1ccccc1)c1ccccc1)Cn1ccc(=O)[nH]c1=O (racemic)	–	–	–	> 100	–
O=C(O)CCNC(=O)C(CCOC(c1ccccc1)(c1ccccc1)c1ccccc1)Cn1ccc(=O)[nH]c1=O (racemic)	–	–	0.2	> 100	–
CC(C)(C)[Si](OCCC(Cn1ccc(=O)[nH]c1=O)C(=O)O)(c1ccccc1)c1ccccc1 (racemic)	–	–	1.6	> 100	–
CC(C)(C)[Si](OCCC(Cn1ccc(=O)[nH]c1=O)C(N)=O)(c1ccccc1)c1ccccc1 (racemic)	–	–	5	> 100	–
CNC(=O)C(CCO[Si](c1ccccc1)(c1ccccc1)C(C)(C)C)Cn1ccc(=O)[nH]c1=O (racemic)	–	–	3.6	> 100	–
CCNC(=O)C(CCO[Si](c1ccccc1)(c1ccccc1)C(C)(C)C)Cn1ccc(=O)[nH]c1=O (racemic)	–	–	5.7	> 100	–
CCN(CC)C(=O)C(CCO[Si](c1ccccc1)(c1ccccc1)C(C)(C)C)Cn1ccc(=O)[nH]c1=O (racemic)	–	–	20	> 100	–
CC(C)(C)[Si](OCCC(Cn1ccc(=O)[nH]c1=O)C(=O)N1CCN(C(=O)OCc2ccccc2)CC1)(c1ccccc1)c1ccccc1 (racemic)	–	–	98	> 100	–
O=C(OCc1ccccc1)OCC(CCNC(c1ccccc1)(c1ccccc1)c1ccccc1)Cn1ccc(=O)[nH]c1=O (racemic)	–	–	6.5	> 100	–
O=C(O)C(CCNC(c1ccccc1)(c1ccccc1)c1ccccc1)Cn1ccc(=O)[nH]c1=O (racemic)	51	1.3	7.2	90	39
NC(=O)C(CCNC(c1ccccc1)(c1ccccc1)c1ccccc1)Cn1ccc(=O)[nH]c1=O (racemic)	177	1.1	5.5	98	161
O=c1ccn(CC(CO)CCOC(c2ccccc2)(c2ccccc2)c2ccccc2)c(=O)[nH]1 (racemic)	33	1.2	–	–	–
COc1cc([C@@H]2c3cc4c(cc3[C@H](O)[C@H]3COC(=O)[C@H]23)OCO4)cc(OC)c1OC [PODOFILOX]	–	0.012	–	–	–
